The values below come from PubChem BioAssay (NCI).

The term GI50 denotes the concentration giving 50% growth inhibition. The TGI is the concentration giving total growth inhibition. Read a low TGI as greater sensitivity of the cells.

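Five concentrations, 48 hours, 96-well plates. Here, GI50 denotes the concentration required for 50% inhibition of growth. TGI denotes the concentration required for complete inhibition of growth.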

Test systems include HOP-92 NSCLC; M14 melanoma; HCC-2998 colon; SN12C renal; ACHN renal; COLO 205 colon; SK-OV-3 ovarian; NCI-H23 lung; BT-549 breast; MCF7 breast.
Assay in all cases: DTP human tumour cell line panel, 48 h

For `CCCCCCCC(=O)[O-].N.N.N.N.N.[Co+3].[O-][Cl+3]([O-])([O-])[O-]`, the GI50 in the experiment on HOP-92 NSCLC, with M14 melanoma, in the experiment on HCC-2998 colon, in the experiment with SN12C renal, in the experiment with ACHN renal and with COLO 205 colon was greater than 100 µM throughout. Also, the GI50 with SK-OV-3 ovarian and in the experiment on NCI-H23 lung was greater than 100 µM throughout. The TGI in the experiment on HOP-92 NSCLC, with M14 melanoma, with HCC-2998 colon, in the experiment on SN12C renal, with ACHN renal and in the experiment with COLO 205 colon was greater than 100 µM in each case. Further, the TGI in the experiment with SK-OV-3 ovarian and with NCI-H23 lung was greater than 100 µM each time.
For `[N-]=[N+]=NCCCn1c2c(c3ccccc3c1=O)C(=O)c1cc3c(cc1-2)OCO3`, the GI50 in the experiment with HOP-92 NSCLC is 28.1 µM; in the experiment with M14 melanoma, 79.7 µM; with SN12C renal, greater than 100 µM; in the experiment on ACHN renal it was 24.1 µM; in the experiment on BT-549 breast, greater than 100 µM; with MCF7 breast, 0.817 µM. Further, the TGI in the experiment with HOP-92 NSCLC, in the experiment with M14 melanoma, in the experiment on SN12C renal, in the experiment with ACHN renal, with BT-549 breast and in the experiment on MCF7 breast was greater than 100 µM each time.
Consider `COc1ccc(C2[C@@H](Cl)C(=O)N2c2ccc(OC)cc2)cc1` (stereo partly drawn), for which the concentration for total growth inhibition (TGI) in the experiment with HOP-92 NSCLC was 39.5 µM; in the experiment with HCC-2998 colon it was greater than 100 µM; in the experiment with SN12C renal, greater than 100 µM; with ACHN renal it was greater than 100 µM; in the experiment on COLO 205 colon, greater than 100 µM; with SK-OV-3 ovarian, 53 µM. The TGI in the experiment on NCI-H23 lung is greater than 100 µM.
For `CC1=NN(c2ccccc2)C(=O)C1N=Nc1ccc(Br)cc1C` (stereo not drawn), the TGI in the experiment with HOP-92 NSCLC, with M14 melanoma, in the experiment on HCC-2998 colon, with SN12C renal, with ACHN renal and with COLO 205 colon was greater than 100 µM throughout. The concentration for total growth inhibition (TGI) in the experiment on SK-OV-3 ovarian and in the experiment on NCI-H23 lung was greater than 100 µM each time.
In the case of `O=S(=O)(O)c1ccc([Se][Se]c2ccc(S(=O)(=O)O)cc2)cc1`, the TGI with HOP-92 NSCLC, in the experiment with M14 melanoma, in the experiment on HCC-2998 colon, in the experiment on SN12C renal, in the experiment on ACHN renal and in the experiment on COLO 205 colon was greater than 100 µM throughout. In addition, the TGI in the experiment on SK-OV-3 ovarian and with NCI-H23 lung was greater than 100 µM each time.
As to `Clc1cc2ns[s+]c2cc1Cl`, the TGI in the experiment with HOP-92 NSCLC, with M14 melanoma, in the experiment with HCC-2998 colon, with SN12C renal, in the experiment with ACHN renal and with COLO 205 colon was greater than 100 µM each time. For the same compound, the TGI in the experiment with SK-OV-3 ovarian and in the experiment with NCI-H23 lung was greater than 100 µM each time.
Regarding `CCN(CC(O)COc1ccc2c(c1)[n+]([O-])nc(N)[n+]2[O-])C(C)=O` (stereo not drawn), the TGI in the experiment on M14 melanoma, in the experiment with SN12C renal, in the experiment on ACHN renal, in the experiment with BT-549 breast, in the experiment with MCF7 breast and in the experiment on COLO 205 colon was greater than 100 µM throughout. Further, the TGI with SK-OV-3 ovarian and in the experiment on NCI-H23 lung was greater than 100 µM each time.
As to `Oc1ccccc1-c1cnnc(-c2ccccc2O)c1`, the TGI is 49.9 µM in the experiment on HOP-92 NSCLC; 43.3 µM in the experiment with M14 melanoma; greater than 100 µM with SN12C renal; 83.5 µM in the experiment on ACHN renal; 41.7 µM in the experiment with COLO 205 colon; 72.8 µM with SK-OV-3 ovarian.
Consider `NC1=NN(c2ccccc2)C(=O)C1/C(=N\NC(=O)c1cc2ccccc2cc1O)C(=O)Nc1ccc(Cl)c(Cl)c1` (stereo not drawn), for which the TGI with HOP-92 NSCLC is 92 µM; in the experiment with M14 melanoma, 72.5 µM; with HCC-2998 colon it was greater than 100 µM; in the experiment with SN12C renal it was greater than 100 µM; with ACHN renal it was greater than 100 µM; with COLO 205 colon, 36.6 µM. Besides, in the experiment with NCI-H23 lung, the TGI came to 63.5 µM.
For `c1ccc2cc(Cn3c(-c4cccc5ccccc45)[n+](Cc4ccc5ccccc5c4)c4c5ccccc5c5ccccc5c43)ccc2c1`, the GI50 was 0.328 µM with HCC-2998 colon, 0.244 µM in the experiment on MCF7 breast, 0.322 µM in the experiment on SK-OV-3 ovarian and 0.248 µM in the experiment with NCI-H23 lung. Besides, the TGI in the experiment with HCC-2998 colon turned out to be 1.59 µM; in the experiment with MCF7 breast, 1.2 µM; in the experiment on SK-OV-3 ovarian, 1.62 µM; in the experiment on NCI-H23 lung, 1.15 µM.
For `Cc1cc(NCCCCCCCCNc2cc(C)nc3cc(N(C)C)ccc23)c2ccc(N(C)C)cc2n1`, the TGI in the experiment with HOP-92 NSCLC turned out to be 8.04 µM; in the experiment with M14 melanoma, 21.4 µM; with SN12C renal it was 21.5 µM; with ACHN renal, 32.7 µM; in the experiment with COLO 205 colon it was 5.5 µM; in the experiment on NCI-H23 lung, 15.2 µM.
For `CN(N=O)N1C(=O)SCC(c2ccccc2)(c2ccccc2)C1=O`, the total growth inhibition concentration (TGI) with HOP-92 NSCLC is greater than 100 µM; with M14 melanoma, greater than 100 µM; in the experiment with HCC-2998 colon it was greater than 100 µM; in the experiment on SN12C renal it was greater than 100 µM; in the experiment on ACHN renal, greater than 100 µM; in the experiment with MCF7 breast, 62.2 µM. The results for the concentration for total growth inhibition (TGI) in the experiment with COLO 205 colon, with SK-OV-3 ovarian and in the experiment with NCI-H23 lung were greater than 100 µM, 64.6 µM and greater than 100 µM, respectively.
With `Cc1ccccc1N=C(c1ccccc1)C1C(=O)c2ccccc2C1=O`, the GI50 was 14.4 µM in the experiment on HOP-92 NSCLC; 2.67 µM with M14 melanoma; 19.2 µM in the experiment with HCC-2998 colon; 19.9 µM in the experiment with SN12C renal; 19 µM in the experiment with ACHN renal; 1.48 µM in the experiment with MCF7 breast. Further, the GI50 with COLO 205 colon was 13.8 µM; in the experiment on SK-OV-3 ovarian, 3.68 µM; with NCI-H23 lung, 15.8 µM. The TGI in the experiment on HOP-92 NSCLC was 53.8 µM; in the experiment on M14 melanoma it was 13.2 µM; in the experiment on HCC-2998 colon it was 54.2 µM; in the experiment on SN12C renal, greater than 100 µM; with ACHN renal, 62.4 µM; with MCF7 breast, 19.3 µM. Further, the TGI in the experiment with COLO 205 colon is 38.5 µM; in the experiment on SK-OV-3 ovarian it was 77.2 µM; with NCI-H23 lung, greater than 100 µM.
In the case of `CCCCCCCCCCCCCC(=O)OCC1OC(=O)C(O)C1O` (stereo not drawn), the TGI with HOP-92 NSCLC, with M14 melanoma, with HCC-2998 colon, with SN12C renal, in the experiment with ACHN renal and in the experiment on COLO 205 colon was greater than 100 µM each time. Further, the TGI in the experiment on SK-OV-3 ovarian and in the experiment on NCI-H23 lung was greater than 100 µM in each case.
For the compound `O=C(Nc1ccn(C2CCC(COC(c3ccccc3)(c3ccccc3)c3ccccc3)O2)c(=O)n1)c1ccccc1` (stereo not drawn), the TGI in the experiment on HOP-92 NSCLC was determined as 4.74 µM; in the experiment with M14 melanoma it was 11.8 µM; in the experiment with HCC-2998 colon, 29.2 µM; with SN12C renal, 4.33 µM; in the experiment with ACHN renal, 9.74 µM; in the experiment with MCF7 breast, 10.2 µM. Further, the TGI in the experiment on COLO 205 colon was found to be 4.2 µM; with SK-OV-3 ovarian, 26.3 µM; with NCI-H23 lung, 7.8 µM.
